Assay results: article PMC9166630, “SAR Probing of KX2-391 Provided Analogues With Juxtaposed Activity Profile Against Major Oncogenic Kinases” (Frontiers in Oncology, 2022)

Assays:
HL60 cells = experiment: Apoptosis detection (Annexin V-FITC/PI); type: cell-based, human; conditions: HL60, 7 µM, 48 h
Experimental: Integral to the cell cycle analysis of 4e, we determined the population of cells undergoing apoptosis, or programmed cell death, by Annexin V-FITC/PI double staining in HL60 cells. Two different concentrations of 4e (3.5 µM and 7 µM) were selected for treatment.
Total apoptosis was detected using Annexin V-FITC Apoptosis Detection kit (Cell Signaling Technology, Danvers, MA, USA) as per the protocol. Briefly, 1.5 x 10^5 of HL60 cells were plated in a 6-well plate with appropriate compound concentrations at 37°C for 48 h. After the incubation completed, cells were washed twice with ice-cold PBS (1X). Subsequently cells were stained with Annexin V-FITC/PI and incubated in the dark on ice for 20 min. After washing with PBS wash, the cells were analyzed by acquiring a minimum total of 5000 events using BD FACSAria III flow cytometer (BD Biosciences, USA).

EphA1 = target: T1, EphA1 (Homo sapiens, UniProt P21709); experiment: PamChip tyrosine kinase microarray, EphA1; type: biochemical; conditions: 4e 0.1 µM, HL60 lysate
T1 construct: endogenous in cells; host or cells: HL60 lysate
T1 sequence (P21709 26-976): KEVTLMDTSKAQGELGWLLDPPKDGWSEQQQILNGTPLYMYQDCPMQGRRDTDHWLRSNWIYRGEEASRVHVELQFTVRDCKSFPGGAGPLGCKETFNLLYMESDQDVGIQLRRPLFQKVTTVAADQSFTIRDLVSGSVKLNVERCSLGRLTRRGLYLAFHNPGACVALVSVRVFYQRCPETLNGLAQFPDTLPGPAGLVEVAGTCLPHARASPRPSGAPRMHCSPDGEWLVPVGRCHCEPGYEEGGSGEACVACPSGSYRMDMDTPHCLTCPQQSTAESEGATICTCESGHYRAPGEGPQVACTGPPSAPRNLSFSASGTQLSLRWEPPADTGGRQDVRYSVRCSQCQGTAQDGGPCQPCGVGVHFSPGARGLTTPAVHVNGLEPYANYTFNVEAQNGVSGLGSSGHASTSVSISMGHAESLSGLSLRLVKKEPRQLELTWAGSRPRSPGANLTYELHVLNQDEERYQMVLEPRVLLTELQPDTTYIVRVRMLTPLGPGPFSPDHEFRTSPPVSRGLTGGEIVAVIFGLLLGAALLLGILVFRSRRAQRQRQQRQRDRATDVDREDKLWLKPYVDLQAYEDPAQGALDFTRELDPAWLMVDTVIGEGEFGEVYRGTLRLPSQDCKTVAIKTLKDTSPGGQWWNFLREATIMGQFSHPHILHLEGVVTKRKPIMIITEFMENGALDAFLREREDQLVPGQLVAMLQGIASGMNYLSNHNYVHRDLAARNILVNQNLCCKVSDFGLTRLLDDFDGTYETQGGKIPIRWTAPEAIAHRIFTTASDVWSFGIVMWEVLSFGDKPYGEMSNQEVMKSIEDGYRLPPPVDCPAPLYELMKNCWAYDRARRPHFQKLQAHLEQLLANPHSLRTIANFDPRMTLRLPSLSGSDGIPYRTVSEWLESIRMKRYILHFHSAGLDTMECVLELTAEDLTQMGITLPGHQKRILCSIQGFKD
Experimental: (§1) The changes in kinase activities induced by treatment with 4e were monitored within the HL60 cell lines using PamGene’s (Hertogenbosch, Netherlands) PamChip® peptide microarray profiler, which quantifies the activities of 144 tyrosine kinases (YK) ([29], [30]) (Figure 7). Results are provided as a log fold change (LFC) heatmap and Mean Kinase Statistic. From the LFC it is apparent that compound 4e, at a concentration of 0.1 µM, induced sizable changes to the activity of several kinases within the cell signaling YK profile (Figure 7A).
(§2) An Upstream Kinase tool was used to generate a putative list of kinases responsible for phosphorylating the phospho-sites on the PamChip (Figure 7B) ([31]). It is an interpretation and is highly dependent on the contents of the underlying phosphorylation databases. A Kinase Score was used for ranking kinases based on their significance and specificity in terms of the set of peptides used for the corresponding kinase. Kinase Statistics indicates the overall change of the peptide set that represents the kinase. Kinase statistics value <0 indicates lower kinase activity in the compound spiked lysate and vice versa ([32], [33]). Table 5 lists the 20 most changed kinases within treated HL60 cell lysates by 0.1 μM 4e, ranked according to their Kinase Score.
(§3) The compound 4e was spiked into HL60 cell lysate at different concentrations (0.001, 0.01, 0.1, 1, 10 and 50 μM). In addition, DMSO was also spiked in HL60 lysate at low concentration (2% v/v) as control. Samples were profiled on PamGene’s Tyrosine Kinase (PTK) arrays in technical replicates, covering a total of 196 phosphorylation sites. Frozen HL60 cultured cell pellet was sent to PamGene. At PamGene, cells were lysed using a lysis buffer and proteases inhibitors cocktail. Protein concentration was measured using standard Bradford assay as per PamGene SOPs. These lysates were further used for generating the PTK activity profiles. For spiking, 4e was received as powder form and dissolved in DMSO at PamGene facility followed by storing at -20°C in small aliquots. PamGene used its in-house bioinformatics toolbox in combination with other methods to generate hypotheses of signaling pathways.

TXK = experiment: PamChip tyrosine kinase microarray, TXK; type: biochemical, human; conditions: 4e 0.1 µM, HL60 lysate
Experimental: as §1, §2, §3

PDGFR[beta] = experiment: PamChip tyrosine kinase microarray, PDGFR[beta]; type: biochemical, human; conditions: 4e 0.1 µM, HL60 lysate
Experimental: as §1, §2, §3

Etk/BMX = experiment: PamChip tyrosine kinase microarray, Etk/BMX; type: biochemical, human; conditions: 4e 0.1 µM, HL60 lysate
Experimental: as §1, §2, §3

Hck = experiment: PamChip tyrosine kinase microarray, Hck; type: biochemical, human; conditions: 4e 0.1 µM, HL60 lysate
Experimental: as §1, §2
The two multiple-kinase tests (PamChip and Phosphokinase Profiler) provided strong evidence of very minor involvement of Src in the cellular activities of 4e. However, the question must be raised about the effect of the 4e on other SRC family kinase (SFK). To address this point, we must highlight that both R&D phosphokinase profiler and PamChip feature Yes, Fgr, Lyn, Lck and Src while Fyn, Hck, Blk and Frk activities are tested in the PamChip only. The signals of SFKs in the R&D Phosphokinase Profiler were too weak to detect in both untreated (control) and 4e-treated HL60 cells. In PamChip assay, most of SFK’s were not ranked in the top 20 affected kinases (Table 5). In addition, their Specificity Score were very low (Table 6) indicating their marginal importance to the cell killing activities of 4e. Fgr kinase which ranked 7th in the list (Table 5) was the only SFK member that seems to be affected by the compound, albeit with low Specificity Score (1.03).
The compound 4e was spiked into HL60 cell lysate at different concentrations (0.001, 0.01, 0.1, 1, 10 and 50 μM). In addition, DMSO was also spiked in HL60 lysate at low concentration (2% v/v) as control. Samples were profiled on PamGene’s Tyrosine Kinase (PTK) arrays in technical replicates, covering a total of 196 phosphorylation sites. Frozen HL60 cultured cell pellet was sent to PamGene. […] Protein concentration was measured using standard Bradford assay as per PamGene SOPs. […]

O=C(Cc1ccc(NC(=O)c2cccc(Cl)c2)cc1)NCc1ccccc1 [Compound 4e, N-(4-(2-(benzylamino)-2-oxoethyl)phenyl)-3-chlorobenzamide]
percentage of apoptotic cells (HL60 cells): increased significantly
Mean Final Score (EphA1): 1.8401
Mean Kinase Statistic (EphA1): -0.6954
Mean Significance Score (EphA1): 1.1254
Mean Specificity Score (EphA1): 0.7147
Mean Final Score (TXK): 1.9145
Mean Kinase Statistic (TXK): -0.5527
Mean Significance Score (TXK): 1.2373
Mean Specificity Score (TXK): 0.6772
Mean Final Score (PDGFR[beta]): 1.8565
Mean Kinase Statistic (PDGFR[beta]): -0.5885
Mean Significance Score (PDGFR[beta]): 1.2570
Mean Specificity Score (PDGFR[beta]): 0.5995
Mean Final Score (Etk/BMX): 1.7640
Mean Kinase Statistic (Etk/BMX): -0.5143
Mean Significance Score (Etk/BMX): 1.3079
Mean Specificity Score (Etk/BMX): 0.4561
Mean Final Score (Hck): 1.0872
Mean Kinase Statistic (Hck): -0.4497
Mean Significance Score (Hck): 0.8248
Mean Specificity Score (Hck): 0.2624
